Measurements reported in US12496269B2, “Steamed Glycyrrhiza sp. extract with increased glycyrrhetinic acid contents and preparation method thereof” (LG Household & Health Care Ltd., priority 2021, dated 2025).

Tests used:
MNT-1 melanoma cells = assay: Whitening effect by inhibition of melanin production; format: cell-based; conditions: Homo sapiens, positive control at 200 μg/mL (200 ppm), 72 hours, vs control group, read-out: Melanin production inhibition rate (%)
Protocol: In order to examine the whitening effect of the Glycyrrhiza sp. extract, 10 g of the Glycyrrhiza sp., which was not treated, steamed at 120° C., or roasted at 200° C. and steamed at 120° C., was extracted with 200 mL of 50% butylene glycol and filtered to prepare each extract.
To culture MNT-1 melanoma cells, a mixture of DMEM (Dulbecco's Modified Eagle's Medium) and FBS (Fetal Bovine Serum) was used as a basic medium, and MNT-1 melanoma cells were dispensed in a 6-well plate at a density of 1×10^5 cells/mL to 2×10^5 cells/mL and cultured for 24 hours. Each extract was treated at a concentration of 0.1% in the cell culture solution, and then cultured for 72 hours. As a control group, 50% butylene glycol was used. Arbutin, which is a positive control, was treated at 200 μg/mL (200 ppm). […] Melanin in the precipitate was dissolved by adding 100 μL of 0.5 N sodium hydroxide solution and incubating for 12 hours, and absorbance at 450 nm was measured using an ELISA reader to measure the total amount of melanin produced. The total amount of melanin, of which production was inhibited as compared to the control group, was determined as the melanin production inhibition rate (%), and the experiment was conducted in triplicate, and then the average value was calculated (Table 5).

Raw264.7 cells = assay: Anti-inflammatory effect by inhibition of NO production (lipopolysaccharide-stimulated); format: cell-based; conditions: positive control at 100 μM, lipopolysaccharide 500 ng/mL, 18 hours, vs control group
Protocol: In order to examine the anti-inflammatory effect of the Glycyrrhiza sp. extract, 10 g of the Glycyrrhiza sp., which was not treated, steamed at 120° C., or roasted at 200° C. and steamed at 120° C., was extracted with 200 mL of 50% butylene glycol and filtered to prepare each extract.
To culture Raw264.7 cells, a mixture of DMEM (Dulbecco's Modified Eagle's Medium) and FBS (Fetal Bovine Serum) was used as a basic medium, and Raw264.7 cells were dispensed in a 24-well plate at a density of 1×10^5 cells/mL to 2×10^5 cells/mL and cultured for 24 hours. After removing the medium and starving with a serum-free medium for 12 hours, each extract was treated at a concentration of 1% in the cell culture solution. 30 minutes later, lipopolysaccharide was added at a concentration of 500 ng/mL, followed by culturing for 18 hours. As a control group, 50% butylene glycol was used. L-NMMA, which is a positive control, was treated at 100 μM. After culturing, the supernatant was taken and transferred to a 96-well plate, and GRIESS reagent was added and reacted at room temperature for 15 minutes. Absorbance at 540 nm was measured using an ELISA reader. The total amount of NO, of which production was inhibited as compared to the control group, was determined as the NO production inhibition rate (%), and the experiment was conducted in triplicate, and then the average value was calculated (Table 6).

SMILES | inhibition at 200 µg/mL (MNT-1 melanoma cells) [%] | NO production inhibition rate (%) (Raw264.7 cells)
OC[C@H]1O[C@@H](Oc2ccc(O)cc2)[C@H](O)[C@@H](O)[C@@H]1O [Arbutin] | 19.7 | 
CNC(=N)NCCC[C@H](N)C(=O)O [L-NMMA] |  | 60.9
